Key:
[1] = target: T1, Serine/threonine-protein kinase A-Raf (Homo sapiens, UniProt P10398); test: Inhibition of A-Raf (unknown origin)
T1 sequence (P10398 whole entry): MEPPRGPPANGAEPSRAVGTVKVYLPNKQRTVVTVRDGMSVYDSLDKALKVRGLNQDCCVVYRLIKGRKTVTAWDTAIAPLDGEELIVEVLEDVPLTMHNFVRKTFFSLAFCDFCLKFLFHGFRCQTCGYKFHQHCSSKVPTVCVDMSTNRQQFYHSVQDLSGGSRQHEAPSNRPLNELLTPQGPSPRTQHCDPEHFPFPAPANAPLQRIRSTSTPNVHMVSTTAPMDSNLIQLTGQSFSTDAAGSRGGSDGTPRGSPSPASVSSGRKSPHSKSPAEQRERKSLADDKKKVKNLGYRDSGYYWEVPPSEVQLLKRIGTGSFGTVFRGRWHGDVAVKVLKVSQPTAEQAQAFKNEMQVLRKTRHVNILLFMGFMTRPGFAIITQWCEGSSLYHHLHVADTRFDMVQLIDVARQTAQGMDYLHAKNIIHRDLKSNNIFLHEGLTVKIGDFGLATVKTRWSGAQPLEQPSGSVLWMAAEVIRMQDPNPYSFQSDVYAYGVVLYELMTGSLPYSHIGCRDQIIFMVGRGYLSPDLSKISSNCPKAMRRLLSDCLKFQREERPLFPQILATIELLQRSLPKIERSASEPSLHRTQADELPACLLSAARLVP

[2] = target: T2, Tyrosine-protein kinase Tec (Homo sapiens, UniProt P42680); test: Inhibition of TEC (unknown origin)
T2 sequence (P42680 whole entry): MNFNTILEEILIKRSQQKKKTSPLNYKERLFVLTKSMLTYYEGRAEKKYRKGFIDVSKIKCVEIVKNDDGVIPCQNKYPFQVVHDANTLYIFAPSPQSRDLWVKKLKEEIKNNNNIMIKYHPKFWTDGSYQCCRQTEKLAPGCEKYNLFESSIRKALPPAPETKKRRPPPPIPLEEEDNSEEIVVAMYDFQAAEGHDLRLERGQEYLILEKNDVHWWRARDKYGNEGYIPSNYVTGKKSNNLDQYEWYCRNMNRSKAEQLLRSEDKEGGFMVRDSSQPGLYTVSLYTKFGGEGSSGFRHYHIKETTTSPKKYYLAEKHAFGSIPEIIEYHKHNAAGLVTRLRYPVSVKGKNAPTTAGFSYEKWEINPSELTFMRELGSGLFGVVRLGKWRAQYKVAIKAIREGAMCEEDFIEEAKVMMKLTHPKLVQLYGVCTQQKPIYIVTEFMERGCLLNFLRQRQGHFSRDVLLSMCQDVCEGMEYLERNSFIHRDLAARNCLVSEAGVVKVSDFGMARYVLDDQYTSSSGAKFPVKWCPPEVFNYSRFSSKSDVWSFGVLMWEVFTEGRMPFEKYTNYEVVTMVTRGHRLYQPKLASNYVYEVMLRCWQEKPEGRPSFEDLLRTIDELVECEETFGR

[3] = target: Serine/threonine-protein kinase B-raf (Homo sapiens, UniProt P15056); test: Inhibition of N-terminal GST-tagged human recombinant B-Raf (416 to end residues) using biotin-MEK1 substrate incubated for 1 hr
Chain of Serine/threonine-protein kinase B-raf (Homo sapiens, UniProt P15056) (P15056 whole entry): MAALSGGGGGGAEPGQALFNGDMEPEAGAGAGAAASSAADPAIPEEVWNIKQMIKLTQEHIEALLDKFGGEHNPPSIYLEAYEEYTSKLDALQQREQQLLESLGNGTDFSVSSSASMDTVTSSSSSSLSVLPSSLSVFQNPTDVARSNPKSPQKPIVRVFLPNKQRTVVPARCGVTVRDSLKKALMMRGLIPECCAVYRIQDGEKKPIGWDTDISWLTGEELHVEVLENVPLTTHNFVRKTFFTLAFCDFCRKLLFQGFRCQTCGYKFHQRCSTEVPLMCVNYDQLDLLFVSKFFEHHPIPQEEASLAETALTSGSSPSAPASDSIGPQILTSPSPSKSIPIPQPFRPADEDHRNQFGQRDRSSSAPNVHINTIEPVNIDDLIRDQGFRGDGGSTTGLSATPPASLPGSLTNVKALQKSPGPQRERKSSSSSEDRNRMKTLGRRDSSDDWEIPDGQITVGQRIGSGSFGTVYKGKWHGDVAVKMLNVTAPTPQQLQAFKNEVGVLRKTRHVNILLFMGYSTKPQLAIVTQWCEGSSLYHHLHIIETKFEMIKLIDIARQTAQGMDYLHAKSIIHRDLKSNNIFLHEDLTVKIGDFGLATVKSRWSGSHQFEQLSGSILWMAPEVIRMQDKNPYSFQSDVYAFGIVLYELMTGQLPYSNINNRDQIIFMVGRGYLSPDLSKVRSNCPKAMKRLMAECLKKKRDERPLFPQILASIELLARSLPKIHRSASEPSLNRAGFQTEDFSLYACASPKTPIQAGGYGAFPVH

[4] = target: RAF proto-oncogene serine/threonine-protein kinase (Homo sapiens, UniProt P04049); test: Inhibition of human C-raf using biotin-MEK1 substrate incubated for 1 hr
Chain of RAF proto-oncogene serine/threonine-protein kinase (P04049 whole entry): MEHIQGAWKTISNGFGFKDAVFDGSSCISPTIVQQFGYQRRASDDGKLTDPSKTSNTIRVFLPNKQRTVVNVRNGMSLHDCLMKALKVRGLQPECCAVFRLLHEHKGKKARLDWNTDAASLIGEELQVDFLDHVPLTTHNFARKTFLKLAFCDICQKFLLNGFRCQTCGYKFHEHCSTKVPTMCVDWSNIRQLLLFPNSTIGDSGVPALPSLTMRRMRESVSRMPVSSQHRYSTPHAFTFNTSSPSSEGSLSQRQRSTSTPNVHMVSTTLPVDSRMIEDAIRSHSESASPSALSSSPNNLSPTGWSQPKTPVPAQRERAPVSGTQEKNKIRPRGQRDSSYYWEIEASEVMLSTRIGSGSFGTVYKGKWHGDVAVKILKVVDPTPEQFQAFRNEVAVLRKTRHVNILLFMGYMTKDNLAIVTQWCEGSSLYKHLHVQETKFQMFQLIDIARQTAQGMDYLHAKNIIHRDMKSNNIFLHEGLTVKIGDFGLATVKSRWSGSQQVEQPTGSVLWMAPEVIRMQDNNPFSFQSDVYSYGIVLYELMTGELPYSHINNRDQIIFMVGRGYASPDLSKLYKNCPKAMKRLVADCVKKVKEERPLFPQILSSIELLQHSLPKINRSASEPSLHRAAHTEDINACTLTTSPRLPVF

[5] = target: Mast/stem cell growth factor receptor Kit (Homo sapiens, UniProt P10721); test: Inhibition of Kit (unknown origin) expressed in Escherichia coli
Chain of Mast/stem cell growth factor receptor Kit (P10721 whole entry): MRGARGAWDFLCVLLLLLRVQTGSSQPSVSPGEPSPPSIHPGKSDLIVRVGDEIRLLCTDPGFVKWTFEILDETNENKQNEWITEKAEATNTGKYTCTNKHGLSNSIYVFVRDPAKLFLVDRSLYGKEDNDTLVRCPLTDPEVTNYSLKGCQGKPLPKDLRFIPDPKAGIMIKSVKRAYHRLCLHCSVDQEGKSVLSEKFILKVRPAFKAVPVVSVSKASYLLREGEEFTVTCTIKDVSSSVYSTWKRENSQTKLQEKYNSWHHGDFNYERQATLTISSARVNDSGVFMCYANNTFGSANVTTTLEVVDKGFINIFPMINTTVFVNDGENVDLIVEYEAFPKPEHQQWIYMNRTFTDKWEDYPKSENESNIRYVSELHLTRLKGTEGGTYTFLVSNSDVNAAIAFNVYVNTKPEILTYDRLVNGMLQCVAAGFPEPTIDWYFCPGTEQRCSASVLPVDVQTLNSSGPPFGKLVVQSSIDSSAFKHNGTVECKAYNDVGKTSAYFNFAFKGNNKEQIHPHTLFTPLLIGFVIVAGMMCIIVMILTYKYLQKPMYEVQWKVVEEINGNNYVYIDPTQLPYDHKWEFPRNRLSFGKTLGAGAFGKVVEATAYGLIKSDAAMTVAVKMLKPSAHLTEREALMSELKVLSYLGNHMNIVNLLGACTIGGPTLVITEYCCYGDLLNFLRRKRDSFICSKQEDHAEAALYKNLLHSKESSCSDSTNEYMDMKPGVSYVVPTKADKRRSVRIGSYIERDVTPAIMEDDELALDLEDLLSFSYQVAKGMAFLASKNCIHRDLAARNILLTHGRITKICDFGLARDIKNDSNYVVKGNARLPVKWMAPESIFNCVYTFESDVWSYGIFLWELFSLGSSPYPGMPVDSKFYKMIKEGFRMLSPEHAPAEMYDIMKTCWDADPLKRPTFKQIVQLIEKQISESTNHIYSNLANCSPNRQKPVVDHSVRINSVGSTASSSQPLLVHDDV

[6] = target: Serine/threonine-protein kinase B-raf (Homo sapiens, UniProt P15056, V600E); test: Inhibition of B-raf V600E mutant (unknown origin) expressed in Sf9 cells using biotin-MEK1substrate incubated for 1 hr
Chain of Serine/threonine-protein kinase B-raf (Homo sapiens, UniProt P15056, V600E) (P15056 2-766 V600E limits assumed): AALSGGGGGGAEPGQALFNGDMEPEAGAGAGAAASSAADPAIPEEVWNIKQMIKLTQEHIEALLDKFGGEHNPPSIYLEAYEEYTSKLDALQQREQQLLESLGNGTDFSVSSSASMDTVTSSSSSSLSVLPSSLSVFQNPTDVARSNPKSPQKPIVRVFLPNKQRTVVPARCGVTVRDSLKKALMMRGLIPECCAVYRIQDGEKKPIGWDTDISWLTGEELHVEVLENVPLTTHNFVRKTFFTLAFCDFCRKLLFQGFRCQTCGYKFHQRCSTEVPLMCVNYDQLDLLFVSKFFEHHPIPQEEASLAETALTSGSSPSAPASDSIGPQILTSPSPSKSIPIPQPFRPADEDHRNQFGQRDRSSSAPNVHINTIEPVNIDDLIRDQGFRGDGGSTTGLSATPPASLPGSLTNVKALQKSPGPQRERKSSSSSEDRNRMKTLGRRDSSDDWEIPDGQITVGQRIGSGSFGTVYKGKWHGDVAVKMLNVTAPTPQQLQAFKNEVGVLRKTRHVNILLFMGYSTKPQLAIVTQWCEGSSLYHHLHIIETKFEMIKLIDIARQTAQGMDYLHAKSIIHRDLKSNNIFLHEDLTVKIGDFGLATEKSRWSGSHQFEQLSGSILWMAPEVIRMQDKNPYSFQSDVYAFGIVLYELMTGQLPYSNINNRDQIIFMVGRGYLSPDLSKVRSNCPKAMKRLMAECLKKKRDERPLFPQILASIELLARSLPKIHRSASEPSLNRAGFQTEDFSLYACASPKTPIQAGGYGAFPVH

[7] = target: High affinity nerve growth factor receptor (Homo sapiens, UniProt P04629); test: Inhibition of TrkA (unknown origin)
[8] = target: Proto-oncogene tyrosine-protein kinase Src (Homo sapiens, UniProt P12931); test: Inhibition of Src (unknown origin) expressed in Escherichia coli using biotin-(E4Y)3 substrate
Chain of Proto-oncogene tyrosine-protein kinase Src (P12931 2-536 limits assumed): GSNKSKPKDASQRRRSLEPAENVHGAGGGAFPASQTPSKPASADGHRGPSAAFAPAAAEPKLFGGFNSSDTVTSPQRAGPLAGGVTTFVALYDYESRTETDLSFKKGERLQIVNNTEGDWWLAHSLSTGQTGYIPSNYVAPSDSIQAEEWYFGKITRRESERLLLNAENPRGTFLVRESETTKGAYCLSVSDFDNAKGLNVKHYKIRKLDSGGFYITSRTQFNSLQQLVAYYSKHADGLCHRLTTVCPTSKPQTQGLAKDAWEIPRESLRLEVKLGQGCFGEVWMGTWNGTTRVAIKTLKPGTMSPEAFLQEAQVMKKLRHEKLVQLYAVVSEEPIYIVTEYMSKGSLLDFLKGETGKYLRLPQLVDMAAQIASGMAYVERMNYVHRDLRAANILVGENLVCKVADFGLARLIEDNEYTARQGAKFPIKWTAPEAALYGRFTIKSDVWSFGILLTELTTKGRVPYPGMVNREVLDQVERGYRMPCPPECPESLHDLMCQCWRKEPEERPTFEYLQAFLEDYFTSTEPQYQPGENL

[9] = target: Vascular endothelial growth factor receptor 2 (Homo sapiens, UniProt P35968); test: Inhibition of KDR (unknown origin) by FRET assay
Chain of Vascular endothelial growth factor receptor 2 (P35968 whole entry): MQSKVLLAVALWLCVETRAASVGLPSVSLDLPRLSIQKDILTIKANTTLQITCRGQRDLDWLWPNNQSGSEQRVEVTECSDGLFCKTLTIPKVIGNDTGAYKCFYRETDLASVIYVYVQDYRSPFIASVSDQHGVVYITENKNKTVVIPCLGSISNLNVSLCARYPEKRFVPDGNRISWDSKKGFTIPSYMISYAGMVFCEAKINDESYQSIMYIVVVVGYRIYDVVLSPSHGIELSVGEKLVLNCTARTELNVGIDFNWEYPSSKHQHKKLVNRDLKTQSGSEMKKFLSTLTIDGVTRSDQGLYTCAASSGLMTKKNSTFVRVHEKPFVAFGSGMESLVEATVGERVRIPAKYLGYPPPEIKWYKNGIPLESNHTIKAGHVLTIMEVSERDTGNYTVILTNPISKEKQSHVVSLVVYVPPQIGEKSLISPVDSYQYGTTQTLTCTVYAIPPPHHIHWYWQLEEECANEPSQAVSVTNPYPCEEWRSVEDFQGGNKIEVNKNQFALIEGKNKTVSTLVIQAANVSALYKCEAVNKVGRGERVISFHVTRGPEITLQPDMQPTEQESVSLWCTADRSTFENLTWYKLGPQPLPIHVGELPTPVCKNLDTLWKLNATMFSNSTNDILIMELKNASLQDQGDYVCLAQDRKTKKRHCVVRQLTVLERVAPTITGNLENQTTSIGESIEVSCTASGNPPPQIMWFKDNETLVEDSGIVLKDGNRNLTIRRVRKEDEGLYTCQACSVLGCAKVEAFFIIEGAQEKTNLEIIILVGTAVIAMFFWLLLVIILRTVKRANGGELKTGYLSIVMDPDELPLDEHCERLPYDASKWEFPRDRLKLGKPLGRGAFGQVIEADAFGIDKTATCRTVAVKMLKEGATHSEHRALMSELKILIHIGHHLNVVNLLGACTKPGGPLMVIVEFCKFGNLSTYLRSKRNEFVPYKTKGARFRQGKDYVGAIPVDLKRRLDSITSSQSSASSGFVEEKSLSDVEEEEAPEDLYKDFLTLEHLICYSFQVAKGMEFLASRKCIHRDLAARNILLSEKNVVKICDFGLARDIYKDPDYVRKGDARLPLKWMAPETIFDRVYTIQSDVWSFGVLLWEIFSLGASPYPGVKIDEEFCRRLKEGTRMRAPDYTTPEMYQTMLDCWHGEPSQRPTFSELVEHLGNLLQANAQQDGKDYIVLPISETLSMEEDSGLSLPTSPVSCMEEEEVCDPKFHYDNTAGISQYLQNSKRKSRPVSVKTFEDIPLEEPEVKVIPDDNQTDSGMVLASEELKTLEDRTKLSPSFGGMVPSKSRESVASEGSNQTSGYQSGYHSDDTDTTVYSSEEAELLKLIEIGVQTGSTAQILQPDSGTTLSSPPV

[10] = target: Tyrosine-protein kinase BTK (Homo sapiens, UniProt Q06187); test: Inhibition of Btk (unknown origin) by FRET assay

Measured: IC50

CCCS(=O)(=O)Nc1ccc(F)c(C(=O)c2c[nH]c3ncncc23)c1F
≤ 10 µM: [1] | [2] | [3] | [4]

O=C(c1cccc(NS(=O)(=O)N2CCOCC2)c1F)c1c[nH]c2ncncc12
≤ 10 µM: [5] | [6] | [7] | [4]

O=C(c1c(F)ccc(NS(=O)(=O)c2ccc(C(F)(F)F)cc2)c1F)c1c[nH]c2ncncc12
≤ 10 µM: [8] | [6] | [2] | [4] | [9]

O=C(c1cccc(NS(=O)(=O)c2c(F)cccc2F)c1F)c1c[nH]c2ncncc12
≤ 10 µM: [8] | [5] | [10] | [3] | [4] | [9]

Reference: ChEMBL document CHEMBL3727342, “Compounds and methods for kinase modulation, and indications therefor” (2012)
